The results in this text go back to the NIST ThermoML archive (doi:10.1021/je3002305).

Numbers after ± are expanded uncertainties.

This data set can be described thus: refractive index (Na D-line) (dimensionless). The note with it: 293.1 K; 101.33 kPa; Liquid; Standard Abbe refractometry.

As a reminder, the refractive index is a measure of how strongly the sample bends light. For `CCCCCCCC[n+]1ccn(C)c1.F[P-](F)(F)(F)(F)F` [1-octyl-3-methylimidazolium hexafluorophosphate], the refractive index was determined as 1.4231 ± 0.0008.
Consider `CCCCCCn1cc[n+](C)c1.F[P-](F)(F)(F)(F)F` [1-hexyl-3-methylimidazolium hexafluorophosphate], for which the refractive index came to 1.4176 ± 0.0008.
On to `CCCCc1ccccc1` [butylbenzene], for which the refractive index was found to be 1.4894 ± 0.0008.
Then `CCCCCCCCCCCC` [dodecane], with 1.4221 ± 0.0008.
As to `CCCCn1cc[n+](C)c1.F[P-](F)(F)(F)(F)F` [1-butyl-3-methylimidazolium hexafluorophosphate], the refractive index is recorded as 1.4101 ± 0.0008.
